# Patent US20260034130A1 (priority 2022, published 2026)
# Read-outs that look alike come from different tables or passages of the source.
# Columns and labels:
# [1] = tested on: patients with acute ischemic stroke or high-risk TIA
# Text: As used herein, the “Bleeding Academic Research Consortium (BARC) Type 3 criteria” are: a. Overt bleeding plus hemoglobin drop of 3 to <5 g/dL (provided hemoglobin drop is related to bleed); transfusion with overt bleeding; b. Overt bleeding plus hemoglobin drop ≥5 g/dL (provided hemoglobin drop is related to bleed); cardiac tamponade; bleeding requiring surgical intervention for control; bleeding requiring IV vasoactive agents; or c. Intracranial hemorrhage confirmed by autopsy, imaging, or lumbar puncture; intraocular bleed compromising vision. See, e.g., Roxana Mehran, et al. Standardized Bleeding Definitions for Cardiovascular Clinical Trials, Circulation.
# As used herein, the “Bleeding Academic Research Consortium (BARC) Type 5 criteria” are: a. Probable fatal bleeding; or b. Definite fatal bleeding (overt or autopsy or imaging confirmation). See, e.g., Roxana Mehran, et al. Standardized Bleeding Definitions for Cardiovascular Clinical Trials, Circulation.
# As used herein, the “Bleeding Academic Research Consortium (BARC) Type 2 criteria” are: any clinically overt sign of hemorrhage that “is actionable” and requires diagnostic studies, hospitalization, or treatment by a health care professional. See, e.g., Roxana Mehran, et al. Standardized Bleeding Definitions for Cardiovascular Clinical Trials, Circulation.
# The secondary endpoint of major bleeding was determined by the occurrence of types 3 and 5 bleeding, according to the Bleeding Academic Research Consortium (BARC) classification system. Roxana Mehran, et al. Standardized Bleeding Definitions for Cardiovascular Clinical Trials, Circulation. […] Bleeding was additionally evaluated utilizing International Society on Thrombosis and Haemostasis (ISTH) and PLATelet inhibition and patient Outcomes (PLATO) criteria.
# The population for safety analysis includes all participants who received at least one dose of study medication. This is the primary population used in safety analysis and is analyzed according to the treatment assigned at randomization.
# Analysis of all safety data will be performed on participants treated with ≥1 dose of double-blind drug. The proportion of participants with major bleeding events (BARC types 3 and 5), as well as BARC-, ISTH-, and PLATO-defined criteria, will be summarized by treatment group. Additional summaries will include characteristics of cerebral microbleeds, hemorrhagic transformation of ischemic stroke, and asymptomatic intracranial bleeding. Adverse event and laboratory data, as well as PK and PD data, will be summarized.
# [2] = tested on: patients with acute ischemic stroke or high-risk TIA; assay: AXIOMATIC-SSP primary efficacy: composite of new clinical ischemic stroke during treatment and new covert brain infarction detected by MRI on Day 90; assay type: in vivo, human; details: modified ITT
# Description: The main objective is to determine the dose-response relationship of milvexian in participants with acute ischemic stroke or TIA who are treated with aspirin and clopidogrel. The main secondary objective is to assess the rate of major bleeding in this population compared with placebo.
# The primary efficacy endpoint was the composite of incident ischemic stroke during the treatment period or new covert brain infarction detected by the comparison of 90-day and baseline MRIs. All images were read independently by 2 blinded neuroradiologists, and disagreements were resolved by consensus. […] Clinically overt strokes were determined by site investigators following standardized definitions. Briefly, to qualify as an outcome event, a clinical diagnosis of stroke required a sustained increase in the NIHSS score of ≥3 points that was not explained by other factors, such as infection, or was confirmed by imaging as a new infarct. Covert brain infarction is defined as small ischemic cerebral lesions that are detected on Day 90 MRI in the absence of a symptomatic ischemic stroke event.
# All randomized participants will be included in the analysis of the primary endpoint if they have either a symptomatic ischemic stroke event by day 90 or an evaluable MRI at the day 90 visit. Because of the COVID-19 pandemic, all day 90 visit MRIs will be included in the primary analysis, regardless of timing. All other efficacy analyses will be performed on a randomized (intent-to-treat, ITT) population up to day 90.
# The population for the primary efficacy endpoint analysis include all randomized participants who have (i) a primary endpoint event (a new ischemic stroke during the study period or a new covert brain infarction detected by MRI on Day 90) or (ii) an evaluable MRI image on Day 90.
# The primary efficacy outcome was to assess dose response for the composite of new clinical ischemic stroke during treatment and new covert brain infarction detected by MRI on Day 90 in a modified ITT population (those participants with either a clinical ischemic stroke or a Day 90 MRI).
# [3] = tested on: patients with acute ischemic stroke or high-risk TIA; assay: AXIOMATIC-SSP composite of new ischemic stroke, MI and all-cause death; assay type: in vivo, human; details: up to Day 90
# Text: Event rates of the composite of new ischemic non-fatal stroke, non-fatal myocardial infarction, or all-cause death.
smiles,measurement,setting,value
"C[C@@H]1CCC[C@H](n2cnc(-c3cc(Cl)ccc3-n3cc(Cl)nn3)cc2=O)c2cc(ccn2)-c2c(cnn2C(F)F)NC1=O [milvexian, (5R,9S)-9-(4-(5-chloro-2-(4-chloro-1H-1,2,3-triazol-1-yl)phenyl)-6-oxopyrimidin-1(6H)-yl)-21-(difluoromethyl)-5-methyl-21H-3-aza-1(4,2)-pyridina-2(5,4)-pyrazolacyclonaphan-4-one]","BARC Type 5 (fatal) bleeding, subjects n","[1]; 25 mg BID, N = 313",0
same,"BARC Type 5 bleeding, Incidence Rate (n/N %)","[1]; 25 mg BID, N = 313",(0) %
same,"BARC Type 5 (fatal) bleeding, subjects n","[1]; 25 mg QD, N = 325",0
same,"BARC Type 5 bleeding, Incidence Rate (n/N %)","[1]; 25 mg QD, N = 325",(0) %
same,"BARC Type 5 (fatal) bleeding, subjects n","[1]; 50 mg BID, N = 325",0
same,"BARC Type 5 bleeding, Incidence Rate (n/N %)","[1]; 50 mg BID, N = 325",(0) %
same,"BARC Type 5 (fatal) bleeding, subjects n","[1]; 100 mg BID, N = 306",0
same,"BARC Type 5 bleeding, Incidence Rate (n/N %)","[1]; 100 mg BID, N = 306",(0) %
same,"BARC Type 5 (fatal) bleeding, subjects n","[1]; 200 mg BID, N = 344",0
same,"BARC Type 5 bleeding, Incidence Rate (n/N %)","[1]; 200 mg BID, N = 344",(0) %
same,fatal bleeding,[1]; all treatment arms,No fatal bleeding
same,incidence rate (n/N %) of bleeding endpoint (BARC Type 3 and 5),"[1]; human, in vivo, 90 days",0.6-1.6%
same,incidence rate (n/N %) of composite of new clinical ischemic stroke and new covert brain infarction detected by MRI on Day 90,[2]; 25 mg once daily,16.2%
same,incidence rate (n/N %) of composite of new clinical ischemic stroke and new covert brain infarction detected by MRI on Day 90,[2]; 25 mg twice daily,18.5%
same,incidence rate (n/N %) of composite of new clinical ischemic stroke and new covert brain infarction detected by MRI on Day 90,[2]; 50 mg twice daily,14.1%
same,incidence rate (n/N %) of composite of new clinical ischemic stroke and new covert brain infarction detected by MRI on Day 90,[2]; 100 mg twice daily,14.7%
same,incidence rate (n/N %) of composite of new clinical ischemic stroke and new covert brain infarction detected by MRI on Day 90,[2]; 200 mg twice daily,16.4%
same,All Cause Death (%),"[3]; 25 mg BID, N = 318",(0.9) %
same,"All Cause Death, subjects n","[3]; 25 mg BID, N = 318",3
same,Myocardial Infarction (%),"[3]; 25 mg BID, N = 318",(0.6) %
same,"Myocardial Infarction, subjects n","[3]; 25 mg BID, N = 318",2
same,"New Ischemic Stroke, MI And All Cause Death: Subjects With Event (%)","[3]; 25 mg BID, N = 318",(4.7) %
same,All Cause Death (%),"[3]; 25 mg QD, N = 328",(0.9) %
same,"All Cause Death, subjects n","[3]; 25 mg QD, N = 328",3
same,Myocardial Infarction (%),"[3]; 25 mg QD, N = 328",(0.3) %
same,"Myocardial Infarction, subjects n","[3]; 25 mg QD, N = 328",1
same,"New Ischemic Stroke, MI And All Cause Death: Subjects With Event (%)","[3]; 25 mg QD, N = 328",(5.2) %
same,All Cause Death (%),"[3]; 50 mg BID, N = 328",(0.6) %
same,"All Cause Death, subjects n","[3]; 50 mg BID, N = 328",2
same,Myocardial Infarction (%),"[3]; 50 mg BID, N = 328",(0.3) %
same,"Myocardial Infarction, subjects n","[3]; 50 mg BID, N = 328",1
same,"New Ischemic Stroke, MI And All Cause Death: Subjects With Event (%)","[3]; 50 mg BID, N = 328",(4.9) %
same,All Cause Death (%),"[3]; 100 mg BID, N = 310",(1.6) %
same,"All Cause Death, subjects n","[3]; 100 mg BID, N = 310",5
same,Myocardial Infarction (%),"[3]; 100 mg BID, N = 310",(0.6) %
same,"Myocardial Infarction, subjects n","[3]; 100 mg BID, N = 310",2
same,"New Ischemic Stroke, MI And All Cause Death: Subjects With Event (%)","[3]; 100 mg BID, N = 310",(5.2) %
same,"All Cause Death, subjects n","[3]; 200 mg BID, N = 351",4
same,"Myocardial Infarction, subjects n","[3]; 200 mg BID, N = 351",3
